Among the data in article PMC3028607 are ring closure, isolated yield values, retold here.

Structures are written as SMILES.

The data set is described as follows: SmI2-mediated 8-endo-trig ketyl-alkene radical cyclisation (C-C bond between ketone carbon and distal styrene carbon); SmI2 2.2 equiv, HMPA 18 equiv, t-BuOH 2 equiv; substrate added over 2 h, then 16 h. The note with it: THF, 15.0 mM, 22.0 °C.

Take `COC(=O)[C@@H]1Cc2ccccc2CC(C)C2(O)CCCC[C@@H]12` (stereo partly shown): under “from C/C=C/c1ccccc1C[C@@H](C(=O)OC)[C@@H]1CCCCC1=O, 8-membered ring”, the ring closure, isolated yield was determined as 11%.

Turning to `COC(=O)C1Cc2ccccc2C(C)CC(C)(O)C1` (stereo not shown) [4 (to 9 40% + 10 38%)], under “from C=C(C)c1ccccc1CC(CC(C)=O)C(=O)OC, 8-membered ring”, the ring closure, isolated yield was determined as 78%. `COC(=O)[C@@H]1Cc2ccccc2CCC2(O)CCCCC[C@@H]12` (stereo partly shown) [5a (to 6; 23% SM recovered)]: where the note is “from C=Cc1ccccc1C[C@@H](C(=O)OC)[C@@H]1CCCCCC1=O, 8-membered ring”, the ring closure, isolated yield came to 42%. On to `COC(=O)[C@@H]1Cc2ccccc2CCC2(O)CCCCC[C@H]12` (stereo partly shown) [5b (no product; 62% SM recovered)], for which the ring closure, isolated yield (from C=Cc1ccccc1C[C@@H](C(=O)OC)[C@H]1CCCCCC1=O, 8-membered ring) came to 0%. As for `COC(=O)[C@@H]1Cc2ccccc2C(C)CC2(O)CCCC[C@@H]12` (stereo partly shown) [7a (to 8)], for the setting “from C=C(C)c1ccccc1C[C@@H](C(=O)OC)[C@@H]1CCCCC1=O, 8-membered ring”, the ring closure, isolated yield amounted to 63%. Consider `COC(=O)C1Cc2ccccc2C(C)CC(O)(C(C)C)C1` (stereo not shown) [11 (to 12 54% + 13 28%)], for which the ring closure, isolated yield (from C=C(C)c1ccccc1CC(CC(=O)C(C)C)C(=O)OC, 8-membered ring) turned out to be 82%. `COC(=O)C1Cc2ccccc2C(C)CC(O)(C(C)C)C1(C)C` (stereo not shown) [14 (only fragmentation 15, 58%)]: the ring closure, isolated yield (from C=C(C)c1ccccc1CC(C(=O)OC)C(C)(C)C(=O)C(C)C, 8-membered ring) stood at 0%. `COC(=O)C1Cc2ccccc2C(c2ccccc2)CC(O)(C(C)C)C1` (stereo not shown) [16 (to 17a 37% + 17b 22%)]: the ring closure, isolated yield (from C=C(c1ccccc1)c1ccccc1CC(CC(=O)C(C)C)C(=O)OC, 8-membered ring) worked out at 59%. Take `COC(=O)C1Cc2ccccc2CC(C)C(C)(O)C1` (stereo not shown) [18 (to 19; 20% ketyl-aryl product 20)]: the ring closure, isolated yield (from C/C=C/c1ccccc1CC(CC(C)=O)C(=O)OC, 8-membered ring) amounted to 54%. Take `CCC1(O)CC(C(=O)OC)Cc2ccccc2CC1C` (stereo not shown) [21 (to 22; 6% fragmentation 23)]: the ring closure, isolated yield (from C/C=C/c1ccccc1CC(CC(=O)CC)C(=O)OC, 8-membered ring) amounted to 56%. As to `COC(=O)C1Cc2ccccc2CC(C)C(O)(C(C)C)C1` (stereo not shown) [24 (to 25)], for the setting “from C/C=C/c1ccccc1CC(CC(=O)C(C)C)C(=O)OC, 8-membered ring”, the ring closure, isolated yield stood at 63%. As for `COC(=O)[C@@H]1Cc2ccccc2CC(C)C2(O)CCCC[C@H]12` (stereo partly shown) [26b (to lactone 29; 27% fragmentation 23; 40% SM)], the ring closure, isolated yield (from C/C=C/c1ccccc1C[C@@H](C(=O)OC)[C@H]1CCCCC1=O, 8-membered ring) came out at 9%.

`COC(=O)C1Cc2ccccc2CC(C)C(O)(C(C)C)C1` (stereo not shown) [30 (to 31; 31% fragmentation 32; 32% SM)]: for the setting “from C/C=C\c1ccccc1CC(CC(=O)C(C)C)C(=O)OC, 8-membered ring”, the ring closure, isolated yield amounted to 8%. Consider `COC(=O)C1Cc2ccccc2CC(C2CC2)C(O)(C(C)C)C1` (stereo not shown) [33 (to 34; 47% fragmentation 35)], for which, under “from COC(=O)C(CC(=O)C(C)C)Cc1ccccc1/C=C/C1CC1, 8-membered ring”, the ring closure, isolated yield was 24%. For `COC(=O)C1Cc2ccccc2CC(c2ccccc2)C(O)(C(C)C)C1` (stereo not shown) [36 (to 37; 20% SM)], the ring closure, isolated yield (from COC(=O)C(CC(=O)C(C)C)Cc1ccccc1/C=C/c1ccccc1, 8-membered ring) is 47%. Turning to `COC(=O)[C@@H]1Cc2ccccc2CC(c2ccccc2)C2(O)CCCC[C@@H]12` (stereo partly drawn) [38a (no 8-ring; 7-exo product 39, 44%)], the ring closure, isolated yield (from COC(=O)[C@H](Cc1ccccc1/C=C/c1ccccc1)[C@@H]1CCCCC1=O, 8-membered ring) was determined as 0%. Turning to `COC(=O)[C@@H]1Cc2ccccc2CC(c2ccccc2)C2(O)CCCC[C@H]12` (stereo partly drawn) [38b (no 8-ring; 7-exo lactone 40, 63%)], for the setting “from COC(=O)[C@H](Cc1ccccc1/C=C/c1ccccc1)[C@H]1CCCCC1=O, 8-membered ring”, the ring closure, isolated yield came to 0%.

`COC(=O)C1Cc2ccccc2CC(C)(C)C(C)(O)C1` (stereo not shown) [41 (no 8-ring; ketyl-aryl 42 14% + 43 7%)]: the ring closure, isolated yield (from COC(=O)C(CC(C)=O)Cc1ccccc1C=C(C)C, 8-membered ring) worked out at 0%. As for `COC(=O)C1Cc2ccccc2CC(C)C(O)(C(C)C)C1(C)C` (stereo not shown) [(E)-1-propenyl analogue of 14 (only fragmentation)], under “from C/C=C/c1ccccc1CC(C(=O)OC)C(C)(C)C(=O)C(C)C, 8-membered ring”, the ring closure, isolated yield came to 0%.
